From patent US9289402B2, “Metal entrapped bioactive composites” (YISSUM RESEARCH DEVELOPMENT COMPANY OF THE HEBREW …, priority 2010, dated 2016)

Key:
[1] = test system: Escherichia coli strain MG1655; test: Bactericidal kinetic test towards E. coli MG1655; format: cell-based; conditions: HEPES buffer 0.04 M pH 7.4, 26 °C, ca. 10^6 CFU/ml, concentrations of Table 1 (composite 50.0 ppm, AgNO3 0.1 ppm, CHD 0.75 ppm)
Method: A wild-type Escherichia coli strain MG1655 was used as a target organism to evaluate the bactericidal efficacy of the active ingredients i.e. CHD, metallic and ionic Ag and the CHD@Ag composite. Bacteria were maintained on MacConkey agar plates at […]. Prior to each experiment, an overnight culture was prepared by seeding single colonies into 30 ml of Luria Bertani (LB) broth at 37° C. with shaking. This overnight culture was then washed three times by centrifugation (10 min, 4850 rpm, at 25° C.) and resuspended in HEPES buffer (0.04M, pH 7.4). The resulting washed pellet was resuspended in HEPES and brought to an optical density (OD590) of 0.3 which corresponds to ca. 10^8 CFU/ml. Enumeration of bacteria was performed by serial dilution and plating via the pour-plate technique. The inoculated plates were incubated at 37° C. for 24 h and bacterial concentrations were determined by enumerating the resulting CFUs. The bactericidal kinetic tests were carried out in five acid-washed 500 ml Erlenmeyer flasks filled with 200 ml HEPES buffer. The flasks were capped with dense paper caps to allow oxygen supply. Typically, the active ingredients at the desired concentrations and combinations were added first and then 2.0 ml of the E. coli suspension was added to final concentration of ca. 10^6 CFU/ml. The active ingredients included one of the following: CHD@Ag composite, MeOH-extracted composite, AgNO3 solution, CHD solution and combinations thereof in final concentrations and the amounts which are summarized in Table 1. [table] The vessels were kept in an incubated shaker at 26° C. under dark conditions. The disinfection kinetics were followed by sequentially sampling 1.0 ml aliquots form the vessels at the designated times. These samples were neutralized by dilution (1:1) with a neutralizing solution (0.2% w/w sodium thioglycolate, 1.9% w/w sodium thiosulphate, 1% w/w Tween 80, 1.4% w/w lecithin) for 5 min. The efficiency of this neutralization procedure was validated in separate control experiments. […] The plates were incubated at 37° C. for 24 h and bacterial colonies were counted. […]

[2] = test system: P. aeruginosa PU21; test: Bactericidal kinetic test towards P. aeruginosa PU21; format: cell-based, Pseudomonas aeruginosa; conditions: FIG. 8

SMILES	biocidal activity towards E. coli MG1655 [1]	biocidal activity towards E. coli MG1655 ([1]; listed as CHD solution)	bactericidal effect towards P. aeruginosa PU21 [2]
O=[N+]([O-])[O-].[Ag+] [Ag^+, AgNO3]	no biocidal activity	–	–
N=C(NCCCCCCNC(=N)NC(=N)Nc1ccc(Cl)cc1)NC(=N)Nc1ccc(Cl)cc1.O=C(O)[C@H](O)[C@@H](O)[C@H](O)[C@H](O)CO.O=C(O)[C@H](O)[C@@H](O)[C@H](O)[C@H](O)CO [CHD, Chlorhexidine digluconate]	only slightly affected	only very weak biocidal activity	weak bactericidal effect
